Measurements published in patent US20250221996A1, “HETEROCYCLIC COMPOUNDS, COMPOSITIONS THEREOF, AND METHODS OF TREATMENT THEREWITH” (BeiGene, Ltd., priority 2022, published 2025).
pIC50: −log10 of the molar value.

System: pERK1/2(THR202/TYR204) level in AsPC-1 cells
Test: pERK assay (HTRF) in AsPC-1 cell line
Format: cell-based
Settings: 2 h compound treatment
Method: AsPC-1 cell line was used in this study. Cells were maintained in RPMI-1640 supplemented with 10% fetal bovine serum (Thermo Fisher), 50 units/mL penicillin and streptomycin (Thermo Fisher) and kept at 37° C. in a humidified atmosphere of 5% CO2 in air. Cells were reinstated from frozen stocks that were laid down within 30 passages from the original cells purchased. 30000 cells per well were seeded into a 96-well plate and incubated overnight. Cells were treated with a 10-point dilution series. The final compound concentration is from 0 to 10 μM. After 2 h compound treatment, cells were lysed, and the pERK1/2(THR202/TYR204) level in the cell lysates was detected by HTRF kit (Cisbio). In brief, a total of 16 μL of cell lysate from each well of a 96-well plate was transferred to a 384-well white assay plate. Lysate from each well was incubated with 2 μL of Eu3+-cryptate (donor) labeled anti-phospho-ERK1/2 and 2 μL of D2 (acceptor) labeled anti-phospho-ERK1/2 antibodies (Cisbio) overnight in dark at room temperature. When donor and acceptor are in close proximity, excitation of the donor with laser triggers a Fluorescence Resonance Energy Transfer (FRET) towards the acceptor, which in turn fluoresces at 655 nm wavelength. FRET signals were measured using a PHERAstar FSX reader (BMG Labtech). IC50 determination was performed by fitting the curve of percent inhibition versus the log of the inhibitor concentration using Dotmatics.

Compound	pIC50	pIC50 (Homo sapiens, ASPC1, 2 h)
N#Cc1c(N)sc2c(F)ccc(-c3c(C(F)(F)F)cc4c(N5C6CCC5CNC6)nc(OCC56COC(C5)C6)nc4c3F)c12 (single isomer, unassigned) [Example 9-Isomer 2, 4-(2-((2-oxabicyclo[2.1.1]hexan-4-yl)methoxy)-4-(3,8-diazabicyclo[3.2.1]octan-8-yl)-8-fluoro-6-(trifluoromethyl)quinazolin-7-yl)-2-amino-7-fluorobenzo[b]thiophene-3-carbonitrile]	6.99	–
N#Cc1c(N)sc2c(F)ccc(-c3c(C(F)(F)F)cc4c(N5CC6CCC(C5)N6)nc(OCC56COC(C(F)F)(C5)C6)nc4c3F)c12 (single isomer, unassigned) [Example 1-Isomer 1, 4-(4-(3,8-diazabicyclo[3.2.1]octan-3-yl)-2-((1-(difluoromethyl)-2-oxabicyclo[2.1.1]hexan-4-yl)methoxy)-8-fluoro-6-(trifluoromethyl)quinazolin-7-yl)-2-amino-7-fluorobenzo[b]thiophene-3-carbonitrile]	5.59	–
N#Cc1c(N)sc2c(F)ccc(-c3c(C(F)(F)F)cc4c(N5CC6CCC(C5)N6)nc(OCC5(C#N)CCOCC5)nc4c3F)c12 (single isomer, unassigned) [Example 22-Isomer 1, 4-(((7-(2-amino-3-cyano-7-fluorobenzo[b]thiophen-4-yl)-4-(3,8-diazabicyclo[3.2.1]octan-3-yl)-8-fluoro-6-(trifluoromethyl)quinazolin-2-yl)oxy)methyl)tetrahydro-2H-pyran-4-carbonitrile]	< 5.00	–
N#Cc1c(N)sc2c(F)ccc(-c3c(C(F)(F)F)cc4c(N5CC6CCC(C5)N6)nc(OCC5(O)CCOC5)nc4c3F)c12 (stereo not shown) [Example 6, 4-(4-(3,8-diazabicyclo[3.2.1]octan-3-yl)-8-fluoro-2-((3-hydroxytetrahydrofuran-3-yl)methoxy)-6-(trifluoromethyl)quinazolin-7-yl)-2-amino-7-fluoro benzo[b]thiophene-3-carbonitrile]	–	6.73
CC1(COc2nc(N3CC4CCC(C3)N4)c3cc(C(F)(F)F)c(-c4ccc(F)c5sc(N)c(C#N)c45)c(F)c3n2)CN(c2ncco2)C1 [Example 46, 4-(4-(3,8-diazabicyclo[3.2.1]octan-3-yl)-8-fluoro-2-((3-methyl-1-(oxazol-2-yl)azetidin-3-yl)methoxy)-6-(trifluoromethyl)quinazolin-7-yl)-2-amino-7-fluorobenzo[b]thiophene-3-carbonitrile]	–	6.65
N#CCC1(COc2nc(N3CC4CCC(C3)N4)c3cc(C(F)(F)F)c(-c4ccc(F)c5sc(N)c(C#N)c45)c(F)c3n2)CCOCC1 [Example 35, 4-(4-(3,8-diazabicyclo[3.2.1]octan-3-yl)-2-((4-(cyanomethyl)tetra hydro-2H-pyran-4-yl)methoxy)-8-fluoro-6-(trifluoromethyl)quinazolin-7-yl)-2-amino-7-fluorobenzo[b]thiophene-3-carbonitrile]	–	6.56
COC(=O)N1CC(C)(COc2nc(N3CC4CCC(C3)N4)c3cc(C(F)(F)F)c(-c4ccc(F)c5sc(N)c(C#N)c45)c(F)c3n2)C1 [Example 8, methyl 3-(((7-(2-amino-3-cyano-7-fluorobenzo[h]thiophen-4-yl)-4-(3,8-diazabicyclo[3.2.1]octan-3-yl)-8-fluoro-6-(trifluoromethyl)quinazolin-2-yl)oxy)methyl)-3-methylazetidine-1-carboxylate]	–	6.80
N#Cc1c(N)sc2c(F)ccc(-c3c(C(F)(F)F)cc4c(N5CC6CCC(C5)N6)nc(OCC5CC6(COC6)C5)nc4c3F)c12 [Example 33, 4-(2-((2-oxaspiro[3.3]heptan-6-yl)methoxy)-4-(3,8-diazabicyclo [3.2.1]octan-3-yl)-8-fluoro-6-(trifluoromethyl)quinazolin-7-yl)-2-amino-7-fluoro benzo[b]thiophene-3-carbonitrile]	–	6.79
CC1(COc2nc(N3CC4CCC(C3)N4)c3cc(C(F)(F)F)c(-c4ccc(F)c5sc(N)c(C#N)c45)c(F)c3n2)CC2(COC2)C1 [Example 55, 4-(4-(3,8-diazabicyclo[3.2.1]octan-3-yl)-8-fluoro-2-((6-methyl-2-oxaspiro[3.3]heptan-6-yl)methoxy)-6-(trifluoromethyl)quinazolin-7-yl)-2-amino-7-fluorobenzo[b]thiophene-3-carbonitrile]	–	6.48
CC(F)(F)C1(COc2nc(N3CC4CCC(C3)N4)c3cc(C(F)(F)F)c(-c4ccc(F)c5sc(N)c(C#N)c45)c(F)c3n2)COC1 [Example 34]	–	7.09
N#Cc1c(N)sc2c(F)ccc(-c3c(C(F)(F)F)cc4c(N5CC6CCC(C5)N6)nc(OCC5(C#N)CCOC5)nc4c3F)c12 (single isomer, unassigned) [Example 10-Isomer 4, 3-(((7-(2-amino-3-cyano-7-fluorobenzo[b]thiophen-4-yl)-4-(3,8-diazabicyclo[3.2.1]octan-3-yl)-8-fluoro-6-(trifluoromethyl)quinazolin-2-yl)oxy)methyl)tetrahydrofuran-3-carbonitrile]	7.25	–
Cn1ccnc1N1CC(COc2nc(N3CC4CCC(C3)N4)c3cc(C(F)(F)F)c(-c4ccc(F)c5sc(N)c(C#N)c45)c(F)c3n2)C1 [Example 24, 4-(4-(3,8-diazabicyclo[3.2.1]octan-3-yl)-8-fluoro-2-((1-(1-methyl-1H-imidazol-2-yl)azetidin-3-yl)methoxy)-6-(trifluoromethyl)quinazolin-7-yl)-2-amino-7-fluorobenzo[b]thiophene-3-carbonitrile]	–	6.70
Cn1ccnc1N1CC(C)(COc2nc(N3CC4CCC(C3)N4)c3cc(C(F)(F)F)c(-c4ccc(F)c5sc(N)c(C#N)c45)c(F)c3n2)C1 [Example 54, 4-(4-(3,8-diazabicyclo[3.2.1]octan-3-yl)-8-fluoro-2-((3-methyl-1-(1-methyl-1H-imidazol-2-yl)azetidin-3-yl)methoxy)-6-(trifluoromethyl)quinazolin-7-yl)-2-amino-7-fluorobenzo[b]thiophene-3-carbonitrile]	–	7.49
N#CCC1(COc2nc(N3CC4CCC(C3)N4)c3cc(C(F)(F)F)c(-c4ccc(F)c5sc(N)c(C#N)c45)c(F)c3n2)CCOC1 (stereo not shown) [Example 37, 4-(4-(3,8-diazabicyclo[3.2.1]octan-3-yl)-2-((3-(cyanomethyl)tetra hydrofuran-3-yl)methoxy)-8-fluoro-6-(trifluoromethyl)quinazolin-7-yl)-2-amino-7-fluorobenzo[h]thiophene-3-carbonitrile]	–	6.92
N#Cc1c(N)sc2c(F)ccc(-c3c(C(F)(F)F)cc4c(N5CC6CCC(C5)N6)nc(OCC5(C(F)F)CCOC5)nc4c3F)c12 (single isomer, unassigned) [Example 14-Isomer 3, 4-(4-(3,8-diazabicyclo[3.2.1]octan-3-yl)-2-((3-(difluoromethyl)tetrahydrofuran-3-yl)methoxy)-8-fluoro-6-(trifluoromethyl)quinazolin-7-yl)-2-amino-7-fluorobenzo[b]thiophene-3-carbonitrile]	–	6.76
COC1(COc2nc(N3CC4CCC(C3)N4)c3cc(C(F)(F)F)c(-c4ccc(F)c5sc(N)c(C#N)c45)c(F)c3n2)CN(C(C)=O)C1 [Example 39, 4-(2-((1-acetyl-3-methoxyazetidin-3-yl)methoxy)-4-(3,8-diazabicyclo [3.2.1]octan-3-yl)-8-fluoro-6-(trifluoromethyl)quinazolin-7-yl)-2-amino-7-fluorobenzo[b]thiophene-3-carbonitrile]	–	6.31
